Measurements: article PMC3810402 (Journal of the American Chemical Society, 2008)

What was measured:
HCT116-p53+/+ cells = assay: MTS cell viability assay, HCT116; type: cell-based; conditions: single dose, 10 μg/mL, positive control
SW480 cells (mutant p53) = assay: Tumor-killing activity by Trypan blue cell count, SW480; type: cell-based; conditions: added daily, 10 μg/mL

**Q.** With `COc1ccc(C2=N[C@@H](c3ccc(Cl)cc3)[C@@H](c3ccc(Cl)cc3)N2C(=O)N2CCNC(=O)C2)c(OC(C)C)c1` [Nutlin-3] as the compound, how does the “HCT116 cell viability (MTS)” value (HCT116-p53+/+ cells) read?
**A.** a reduction in HCT116 cell viability

**Q.** What about the “effectiveness against SW480” value (SW480 cells (mutant p53)) of the same compound?
**A.** ineffective
